Reference: patent publication US20050266014A1, “Tumor antigen based on products of the tumor suppressor gene WT1” (HARUO SUGIYAMA, priority 1998, published 2005)
Like-named read-outs stand apart in the source and are kept apart here. Values belong to the molecule of their own block, whether it stands above or below them. No end group written: not given here.

How the values were obtained:
[1] = biological target: T1, D^b of MHC class I (Mus musculus, UniProt P01899); assay: Binding of peptides to D^b on RMA-S cells (fluorescent antibody staining, binding dissociation constant)
T1 construct: the cell line (RMA-S) that expresses K^b and D^b molecules; endogenous in cells; host or cells: RMA-S cells
T1 sequence (P01899 25-362): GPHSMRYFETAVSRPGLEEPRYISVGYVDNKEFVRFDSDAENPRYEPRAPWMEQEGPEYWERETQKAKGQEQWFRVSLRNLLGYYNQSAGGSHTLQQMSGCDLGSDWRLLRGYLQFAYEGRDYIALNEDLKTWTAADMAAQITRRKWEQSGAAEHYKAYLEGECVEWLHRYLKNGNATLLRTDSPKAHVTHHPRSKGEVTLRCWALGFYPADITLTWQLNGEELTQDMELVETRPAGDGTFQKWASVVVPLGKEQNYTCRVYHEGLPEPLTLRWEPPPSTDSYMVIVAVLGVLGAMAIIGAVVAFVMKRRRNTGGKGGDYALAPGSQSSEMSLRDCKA
T1 sequence (P01887 21-119 partner): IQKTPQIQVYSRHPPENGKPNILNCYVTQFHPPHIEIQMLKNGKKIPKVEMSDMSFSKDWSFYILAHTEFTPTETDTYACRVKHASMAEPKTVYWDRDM
Method: (§1) Thus, RMA-S was cultured at 26° C. to effect high expression of MHC class I, and the cultured cells were incubated with the solutions of the test peptides at 37° C. for 1 hour. […] Then using fluorescently labeled monoclonal antibody that recognizes MHC class I (K^b, D^b), RMA-S cells were stained.

[2] = biological target: T2, K^b of MHC class I (Mus musculus, UniProt P01901); assay: Binding of peptides to K^b on RMA-S cells (fluorescent antibody staining, binding dissociation constant); details: peptide 37° C. 1 hour
T2 construct: the cell line (RMA-S) that expresses K^b and D^b molecules; endogenous in cells; host or cells: RMA-S cells
T2 sequence (P01901 22-369): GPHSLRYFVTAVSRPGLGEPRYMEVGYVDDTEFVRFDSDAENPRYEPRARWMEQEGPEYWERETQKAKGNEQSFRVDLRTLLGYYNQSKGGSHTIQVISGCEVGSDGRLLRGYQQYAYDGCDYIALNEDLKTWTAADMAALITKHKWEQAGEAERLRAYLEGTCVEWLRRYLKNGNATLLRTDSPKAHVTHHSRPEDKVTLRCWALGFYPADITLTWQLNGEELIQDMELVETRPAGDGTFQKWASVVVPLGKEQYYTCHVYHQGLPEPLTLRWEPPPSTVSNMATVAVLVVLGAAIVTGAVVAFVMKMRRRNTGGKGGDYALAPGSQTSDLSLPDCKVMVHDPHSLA
T2 sequence (P01887 21-119 partner): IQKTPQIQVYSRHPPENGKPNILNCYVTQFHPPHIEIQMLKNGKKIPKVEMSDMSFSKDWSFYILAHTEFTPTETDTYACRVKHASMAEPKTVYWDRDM
Method: as §1, with “stained. Finally, the binding dissociation constant was calculated from the average amount of fluorescence per cell (Immunol. Lett., 47: 1, 1995).” for “stained.”

[3] = biological target: T3, HLA-A* 0201 (Homo sapiens, UniProt P04439, D140Y/D185E/D98H/E176V/E277Q/G131W/G231S/I119V/I121R/I166T/I218V/L300P/L318F/N151K/N90K/P208A/P217A/Q86G/Q94H/R138H/R169H/T345S); assay: Binding of peptides to HLA-A* 0201 on T2 cells (FACS, binding dissociation constant); details: 37° C. 1 hour
T3 construct: T2 cells having the empty HLA-A* 0201 molecules; endogenous in cells; host or cells: T2 cells

[4] = tested on: induced CTL; assay: FACS analysis of surface markers of induced CTL, Example 3; type: cell-based; details: human CTL, FIGS. 5 to 10
Method: One week later, T2 cells that were irradiated after incubating for 1 hour with the peptide (20 μg/ml) were added to the above culture system for restimulation. From the following day, human IL-2 (final concentration 100 JRU/ml) was added to the culture.
Subsequently, after repeating, for five times, stimulation with the T2 cells that were irradiated after being pulsed with the peptide, a killing assay was performed using, as the target, the T2 cells pulsed with the peptide or the T2 cells not pulsed with the peptide. The surface markers of the induced CTL were subjected to FACS analysis.

[5] = biological target: T4, D^b of mouse MHC class I, on RMA-S cells (mouse, UniProt P01887 21-119; P01899 25-362); assay: MHC stabilisation on RMA-S cells, staining with fluorescent anti-MHC class I antibody, flow cytometry
T4 construct: whole, on cells; Empty MHC class I on RMA-S cells cultured at 26 C; also called H-2D^b
T4 sequence (MHC heavy, looked up): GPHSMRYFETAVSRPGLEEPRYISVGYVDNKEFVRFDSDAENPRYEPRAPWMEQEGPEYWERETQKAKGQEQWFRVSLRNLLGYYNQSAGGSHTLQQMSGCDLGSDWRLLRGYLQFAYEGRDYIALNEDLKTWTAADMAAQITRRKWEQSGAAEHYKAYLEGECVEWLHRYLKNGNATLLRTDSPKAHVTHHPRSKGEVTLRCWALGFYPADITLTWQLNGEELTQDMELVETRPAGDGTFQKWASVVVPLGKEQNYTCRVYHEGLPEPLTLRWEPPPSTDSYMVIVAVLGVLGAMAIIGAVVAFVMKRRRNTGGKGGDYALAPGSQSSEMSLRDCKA
T4 sequence (b2m, looked up): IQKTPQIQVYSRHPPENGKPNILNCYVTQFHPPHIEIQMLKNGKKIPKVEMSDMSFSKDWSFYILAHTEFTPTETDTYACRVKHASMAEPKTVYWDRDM
Method: as §1, with “stained. Finally, the binding dissociation constant was calculated from the average amount of fluorescence per cell (Immunol. Lett., 47: 1, 1995).” for “stained.”

[6] = biological target: T5, K^b of mouse MHC class I, on RMA-S cells (mouse, UniProt P01887 21-119; P01901 22-369); assay: as above
T5 construct: whole, on cells; Empty MHC class I on RMA-S cells cultured at 26 C; also called H-2K^b
T5 sequence (MHC heavy, looked up): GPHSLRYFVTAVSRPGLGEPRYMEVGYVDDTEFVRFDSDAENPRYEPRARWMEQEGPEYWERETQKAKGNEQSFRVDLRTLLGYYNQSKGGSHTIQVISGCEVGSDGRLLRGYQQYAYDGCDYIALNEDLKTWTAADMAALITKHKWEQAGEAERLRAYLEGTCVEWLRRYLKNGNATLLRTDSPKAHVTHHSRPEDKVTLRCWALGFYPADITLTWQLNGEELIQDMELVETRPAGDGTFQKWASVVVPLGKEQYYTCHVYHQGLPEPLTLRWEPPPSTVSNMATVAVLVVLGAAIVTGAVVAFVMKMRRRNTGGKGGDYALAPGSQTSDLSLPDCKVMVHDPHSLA
T5 sequence (b2m, looked up): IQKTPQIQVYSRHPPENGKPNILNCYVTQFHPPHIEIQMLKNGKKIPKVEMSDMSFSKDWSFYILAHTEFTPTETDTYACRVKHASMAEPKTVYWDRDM
Method: as §1, with “stained. Finally, the binding dissociation constant was calculated from the average amount of fluorescence per cell (Immunol. Lett., 47: 1, 1995).” for “stained.”

[7] = biological target: T6, HLA-A* 0201, on T2 cells (human); assay: peptide binding to empty HLA-A*0201 on T2 cells, staining with fluorescent anti-HLA-A2.1 antibody, FACS
T6 construct: whole, on cells; Empty HLA-A*0201 molecules on T2 cells; also called HLA-A2.1; A* 0201 of human HLA
Method: The above peptides and T2 cells having the empty HLA-A* 0201 molecules (J. Immunol., 150: 1763, 1993; Blood, 88: 2450, 1996) were incubated at 37° C. for 1 hour, and then the T2 cells were stained with fluorescently labeled monoclonal antibody that recognizes HLA-A2.1 to calculate the binding dissociation constant based on the average amount of fluorescence per cell in the FACS analysis.

[8] = RMA-S cells, peptide 37° C. 1 hour, read-out: binding dissociation constant (Kd value) with D^b (converted)

- Kd [2]: 1730 nM
Molecule: CNKRYFKL [K^b 330]

- Kd [2]: 26400 nM
Molecule: GASAYGSL [K^b 45]

- Kd [3]: 7610 nM
Molecule: SLGEQQYSV [WH 187]
- surface markers of induced CTL (CD4, CD8) [4]: The CD4-positive cells and the CD8-positive cells were almost equal in the number

- log of binding dissociation constant (Kd) [6]: -4.58 log
Molecule: GASAYGSL [K^b 45 peptide]

- log of binding dissociation constant (Kd) [6]: -5.76 log
Molecule: CNKRYFKL [K^b 330 peptide]

- Kd [7]: 7610 nM
Molecule: SLGEQQYSV [WH 187 peptide]

Second part, the molecule before the results:

Molecule: CSCC[C@H](NC(=O)[C@@H](N)CCCNC(=N)N)C(=O)N[C@@H](Cc1ccccc1)C(=O)N1CCC[C@H]1C(=O)N[C@@H](CC(N)=O)C(=O)N[C@@H](C)C(=O)N1CCC[C@H]1C(=O)N[C@@H](Cc1ccc(O)cc1)C(=O)N[C@@H](CC(C)C)C(=O)O [D^b 126]
- Kd [1]: 521 nM

Molecule: CMTWNQMNL [D^b 235]
- Kd [1, 8]: 715 nM

Molecule: YSSDNLYQM [D^b 221]
- Kd [1, 8]: 1760 nM

Molecule: CMTWNQMNL [D^b 235 peptide]
- log of binding dissociation constant (Kd) [5]: -6.15 log

B1: D^b 126 peptide (peptide)
peptide: RMFPNAPYL
notes: It was tested on both H-2D^b and HLA-A*0201
- log of binding dissociation constant (Kd) [5]: -6.28 log

Molecule: YSSDNLYQM [D^b 221 peptide]
- log of binding dissociation constant (Kd) [5]: -5.75 log
